# Data as given in article PMC6704710, “Preclinical evaluation of 3D185, a novel potent inhibitor of FGFR1/2/3 and CSF-1R, in FGFR-dependent and macrophage-dominant cancer models” (Journal of Experimental & Clinical Cancer Research : CR, 2019).
# Assays:
# Assay in all cases: Eurofins kinase panel
# Format in all cases: biochemical
# Conditions in all cases: read-out: Inhibition rate (%)
# [1] = molecular target: T1, TAK1(h) (Homo sapiens, UniProt O43318)
# T1 construct: purchased Eurofins (KinaseProfiler)
# T1 sequence (O43318 1-303 limits assumed): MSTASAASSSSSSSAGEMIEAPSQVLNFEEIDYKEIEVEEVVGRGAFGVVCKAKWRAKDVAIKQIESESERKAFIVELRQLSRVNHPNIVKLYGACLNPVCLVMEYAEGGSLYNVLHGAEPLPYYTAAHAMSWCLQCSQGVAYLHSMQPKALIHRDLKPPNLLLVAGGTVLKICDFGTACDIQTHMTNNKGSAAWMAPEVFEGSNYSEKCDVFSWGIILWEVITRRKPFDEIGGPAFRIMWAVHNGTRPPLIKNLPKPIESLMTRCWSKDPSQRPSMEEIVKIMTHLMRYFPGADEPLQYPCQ
# Experimental: (§1) Active FGFR1–4, VEGFR1, KDR, VEGFR3, PDGFRα and PDGFRβ proteins were purchased from Eurofins (Fremont, United States), and kinase activity was assessed using ELISA, as previously reported. […]. Increasing concentrations of ATP were diluted for the kinase reaction in the ATP competition assay. CSF-1R kinase activity was analyzed using the Z’-LYTE™ Kinase Assay Kit (Thermo Fisher, United States). The assay formats are described in the SelectScreen Kinase Profiling Service Zlyte protocol. IC50 values were calculated by dose-response curve fitting using Prism (Graph Pad).
# [2] = molecular target: T2, JAK2(h) (Homo sapiens, UniProt O60674)
# T2 construct: purchased Eurofins (KinaseProfiler)
# Experimental: as §1
# [3] = molecular target: T3, ACTR2(h) (Homo sapiens, UniProt P27037)
# T3 construct: purchased Eurofins (KinaseProfiler)
# Experimental: as §1
# [4] = molecular target: T4, NDR2(h) (Homo sapiens, UniProt Q9Y2H1)
# T4 construct: purchased Eurofins (KinaseProfiler)
# T4 sequence (Q9Y2H1 whole entry): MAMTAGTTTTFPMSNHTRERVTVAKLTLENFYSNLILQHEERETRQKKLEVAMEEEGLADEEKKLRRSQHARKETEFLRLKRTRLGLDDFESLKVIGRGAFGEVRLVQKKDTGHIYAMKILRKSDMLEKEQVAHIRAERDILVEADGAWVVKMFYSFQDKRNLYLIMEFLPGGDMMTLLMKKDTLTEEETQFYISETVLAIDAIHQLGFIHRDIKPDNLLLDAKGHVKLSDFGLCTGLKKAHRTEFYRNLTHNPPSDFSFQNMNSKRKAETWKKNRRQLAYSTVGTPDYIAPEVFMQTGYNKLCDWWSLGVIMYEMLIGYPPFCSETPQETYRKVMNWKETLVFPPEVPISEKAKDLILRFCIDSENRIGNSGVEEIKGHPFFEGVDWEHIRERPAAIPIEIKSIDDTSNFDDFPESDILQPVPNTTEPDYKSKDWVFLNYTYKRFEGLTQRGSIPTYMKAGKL
# Experimental: as §1
# [5] = molecular target: T5, SRPK2(h) (Homo sapiens, UniProt P78362)
# T5 construct: purchased Eurofins (KinaseProfiler)
# T5 sequence (P78362 whole entry): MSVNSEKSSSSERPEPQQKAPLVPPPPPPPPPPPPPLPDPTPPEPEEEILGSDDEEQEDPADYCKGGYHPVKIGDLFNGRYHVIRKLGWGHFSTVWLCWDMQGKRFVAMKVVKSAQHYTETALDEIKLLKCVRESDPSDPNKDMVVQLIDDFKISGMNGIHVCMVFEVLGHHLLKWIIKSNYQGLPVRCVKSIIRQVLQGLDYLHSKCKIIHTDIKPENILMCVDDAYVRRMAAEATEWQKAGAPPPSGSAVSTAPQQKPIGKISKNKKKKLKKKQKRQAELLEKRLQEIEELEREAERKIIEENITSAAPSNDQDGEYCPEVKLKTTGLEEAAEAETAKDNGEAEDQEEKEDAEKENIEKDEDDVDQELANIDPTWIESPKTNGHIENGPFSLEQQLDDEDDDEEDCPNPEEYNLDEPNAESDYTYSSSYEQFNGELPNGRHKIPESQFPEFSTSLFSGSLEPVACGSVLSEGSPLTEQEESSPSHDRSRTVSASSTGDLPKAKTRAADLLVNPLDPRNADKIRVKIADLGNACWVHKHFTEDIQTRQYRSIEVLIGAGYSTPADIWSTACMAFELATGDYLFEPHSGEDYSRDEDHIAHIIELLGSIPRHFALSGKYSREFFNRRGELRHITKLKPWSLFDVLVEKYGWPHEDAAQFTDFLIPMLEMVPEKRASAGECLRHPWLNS
# Experimental: as §1
# [6] = molecular target: T6, Ros(h) (Homo sapiens, UniProt P08922)
# T6 construct: purchased Eurofins (KinaseProfiler)
# Experimental: as §1
# [7] = molecular target: T7, CaMKIδ(h) (Homo sapiens, UniProt Q8IU85)
# T7 construct: purchased Eurofins (KinaseProfiler)
# T7 sequence (Q8IU85 whole entry): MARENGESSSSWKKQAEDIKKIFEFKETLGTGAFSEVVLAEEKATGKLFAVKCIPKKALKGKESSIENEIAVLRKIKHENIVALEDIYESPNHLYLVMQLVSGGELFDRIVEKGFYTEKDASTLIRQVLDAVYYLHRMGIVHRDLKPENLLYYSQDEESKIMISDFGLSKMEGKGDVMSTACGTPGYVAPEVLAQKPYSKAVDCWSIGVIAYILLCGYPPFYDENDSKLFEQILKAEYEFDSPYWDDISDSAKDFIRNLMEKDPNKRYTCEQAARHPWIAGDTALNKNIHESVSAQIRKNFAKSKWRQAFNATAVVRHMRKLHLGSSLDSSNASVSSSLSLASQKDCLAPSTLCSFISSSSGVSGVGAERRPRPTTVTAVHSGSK
# Experimental: as §1
# [8] = molecular target: T8, GRK5(h) (Homo sapiens, UniProt P34947)
# T8 construct: purchased Eurofins (KinaseProfiler)
# T8 sequence (P34947 whole entry): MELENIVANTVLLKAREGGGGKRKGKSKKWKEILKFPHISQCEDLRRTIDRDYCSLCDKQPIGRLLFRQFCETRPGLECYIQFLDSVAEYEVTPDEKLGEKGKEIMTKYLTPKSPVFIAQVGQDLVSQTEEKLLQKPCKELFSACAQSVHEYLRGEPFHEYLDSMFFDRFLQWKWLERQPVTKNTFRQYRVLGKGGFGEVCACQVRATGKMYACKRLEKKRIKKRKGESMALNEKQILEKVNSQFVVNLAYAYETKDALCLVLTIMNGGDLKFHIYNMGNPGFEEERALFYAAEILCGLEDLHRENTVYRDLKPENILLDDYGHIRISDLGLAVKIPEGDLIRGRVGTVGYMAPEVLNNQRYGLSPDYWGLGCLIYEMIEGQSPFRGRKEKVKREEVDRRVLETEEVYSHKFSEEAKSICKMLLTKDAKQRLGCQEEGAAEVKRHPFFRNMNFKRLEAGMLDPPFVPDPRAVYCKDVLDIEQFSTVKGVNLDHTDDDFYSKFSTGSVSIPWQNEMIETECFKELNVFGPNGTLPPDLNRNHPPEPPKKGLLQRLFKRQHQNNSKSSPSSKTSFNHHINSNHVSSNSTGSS
# Experimental: as §1
# [9] = molecular target: T9, PIP5K1α(h) (Homo sapiens, UniProt Q99755)
# T9 construct: purchased Eurofins (KinaseProfiler)
# T9 sequence (Q99755 whole entry): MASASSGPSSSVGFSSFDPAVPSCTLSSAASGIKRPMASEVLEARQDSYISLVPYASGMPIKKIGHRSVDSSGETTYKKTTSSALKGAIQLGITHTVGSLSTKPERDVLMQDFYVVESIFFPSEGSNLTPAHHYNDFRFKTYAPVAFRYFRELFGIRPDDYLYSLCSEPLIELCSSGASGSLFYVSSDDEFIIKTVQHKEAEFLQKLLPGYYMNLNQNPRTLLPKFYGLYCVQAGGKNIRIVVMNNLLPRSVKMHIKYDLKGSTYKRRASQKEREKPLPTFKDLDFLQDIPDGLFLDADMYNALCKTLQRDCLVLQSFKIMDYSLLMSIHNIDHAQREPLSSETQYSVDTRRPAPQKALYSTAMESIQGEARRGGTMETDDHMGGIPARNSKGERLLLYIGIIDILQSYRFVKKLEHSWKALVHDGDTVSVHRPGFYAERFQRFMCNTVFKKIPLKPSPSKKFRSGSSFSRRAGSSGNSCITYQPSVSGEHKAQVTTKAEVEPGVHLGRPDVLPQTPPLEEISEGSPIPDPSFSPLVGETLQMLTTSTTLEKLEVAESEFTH
# Experimental: as §1
# [10] = molecular target: T10, EGFR(L861Q)(h) (Homo sapiens, UniProt P00533, L861Q)
# T10 construct: purchased Eurofins (KinaseProfiler)
# Experimental: as §1
# [11] = molecular target: T11, Hck(h) activated (Homo sapiens, UniProt P08631)
# T11 construct: purchased Eurofins (KinaseProfiler)
# T11 sequence (P08631 whole entry): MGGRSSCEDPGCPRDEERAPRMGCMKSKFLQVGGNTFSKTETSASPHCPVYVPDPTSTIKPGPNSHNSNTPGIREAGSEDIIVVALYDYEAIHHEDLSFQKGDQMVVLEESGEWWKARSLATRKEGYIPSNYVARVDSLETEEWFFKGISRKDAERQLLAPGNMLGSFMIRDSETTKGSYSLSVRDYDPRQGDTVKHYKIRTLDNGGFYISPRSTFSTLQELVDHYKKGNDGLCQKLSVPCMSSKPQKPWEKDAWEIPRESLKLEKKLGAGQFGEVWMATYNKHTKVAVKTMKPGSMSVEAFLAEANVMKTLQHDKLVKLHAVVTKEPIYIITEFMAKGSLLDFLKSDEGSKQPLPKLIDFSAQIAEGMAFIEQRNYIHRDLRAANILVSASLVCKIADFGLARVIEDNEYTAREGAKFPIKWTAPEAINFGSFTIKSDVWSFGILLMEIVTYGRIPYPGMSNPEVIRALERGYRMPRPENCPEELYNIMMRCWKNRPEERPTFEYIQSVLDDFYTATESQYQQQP
# Experimental: as §1
# [12] = molecular target: T12, Blk(h) (Homo sapiens, UniProt P51451)
# T12 construct: purchased Eurofins (KinaseProfiler)
# T12 sequence (P51451 whole entry): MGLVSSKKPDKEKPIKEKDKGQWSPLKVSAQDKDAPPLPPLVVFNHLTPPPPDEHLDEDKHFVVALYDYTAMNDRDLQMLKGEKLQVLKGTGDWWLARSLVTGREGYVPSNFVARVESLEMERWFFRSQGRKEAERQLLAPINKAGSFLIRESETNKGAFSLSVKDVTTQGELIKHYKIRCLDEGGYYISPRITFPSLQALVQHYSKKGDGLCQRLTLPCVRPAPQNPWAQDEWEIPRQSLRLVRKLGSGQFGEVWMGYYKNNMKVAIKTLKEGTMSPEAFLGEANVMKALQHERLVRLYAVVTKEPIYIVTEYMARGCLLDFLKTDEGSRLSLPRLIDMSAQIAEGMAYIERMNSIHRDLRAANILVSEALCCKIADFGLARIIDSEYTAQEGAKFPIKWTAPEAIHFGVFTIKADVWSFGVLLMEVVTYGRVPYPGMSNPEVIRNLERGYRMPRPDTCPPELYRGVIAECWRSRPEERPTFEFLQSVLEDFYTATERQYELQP
# Experimental: as §1
# [13] = molecular target: T13, Abl(h) (Homo sapiens, UniProt P00519)
# T13 construct: purchased Eurofins (KinaseProfiler)
# T13 sequence (P00519 whole entry): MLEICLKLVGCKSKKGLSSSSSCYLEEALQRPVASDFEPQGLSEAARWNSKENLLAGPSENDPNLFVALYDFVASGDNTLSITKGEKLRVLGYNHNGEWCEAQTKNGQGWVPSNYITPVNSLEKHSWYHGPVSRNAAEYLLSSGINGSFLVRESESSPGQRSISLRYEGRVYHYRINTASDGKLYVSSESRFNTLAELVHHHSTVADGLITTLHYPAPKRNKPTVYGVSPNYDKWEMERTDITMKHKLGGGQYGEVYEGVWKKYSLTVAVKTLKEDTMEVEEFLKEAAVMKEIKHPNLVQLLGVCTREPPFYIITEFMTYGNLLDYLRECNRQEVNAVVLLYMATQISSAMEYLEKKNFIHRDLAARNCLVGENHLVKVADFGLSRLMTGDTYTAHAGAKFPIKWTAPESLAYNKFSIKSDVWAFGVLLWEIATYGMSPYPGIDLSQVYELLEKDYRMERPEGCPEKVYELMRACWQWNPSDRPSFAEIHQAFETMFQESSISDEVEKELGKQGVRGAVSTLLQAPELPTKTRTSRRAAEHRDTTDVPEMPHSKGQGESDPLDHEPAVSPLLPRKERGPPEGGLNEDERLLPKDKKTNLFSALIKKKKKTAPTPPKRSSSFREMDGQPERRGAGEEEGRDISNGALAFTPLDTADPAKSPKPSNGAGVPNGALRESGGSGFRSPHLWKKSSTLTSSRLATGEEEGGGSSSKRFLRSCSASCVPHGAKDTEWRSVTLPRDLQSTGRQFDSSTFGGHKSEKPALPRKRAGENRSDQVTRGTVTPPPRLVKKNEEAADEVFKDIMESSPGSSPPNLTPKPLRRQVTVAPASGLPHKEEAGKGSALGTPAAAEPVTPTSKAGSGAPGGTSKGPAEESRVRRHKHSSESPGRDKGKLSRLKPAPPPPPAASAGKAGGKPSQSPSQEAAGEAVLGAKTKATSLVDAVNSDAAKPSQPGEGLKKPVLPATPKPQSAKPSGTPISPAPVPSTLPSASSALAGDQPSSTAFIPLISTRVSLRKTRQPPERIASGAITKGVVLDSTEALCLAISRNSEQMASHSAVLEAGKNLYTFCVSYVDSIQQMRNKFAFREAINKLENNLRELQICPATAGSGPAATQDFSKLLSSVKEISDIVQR
# [14] = molecular target: T14, IKKε(h) (Homo sapiens, UniProt Q14164)
# T14 construct: purchased Eurofins (KinaseProfiler)
# T14 sequence (Q14164 1-716): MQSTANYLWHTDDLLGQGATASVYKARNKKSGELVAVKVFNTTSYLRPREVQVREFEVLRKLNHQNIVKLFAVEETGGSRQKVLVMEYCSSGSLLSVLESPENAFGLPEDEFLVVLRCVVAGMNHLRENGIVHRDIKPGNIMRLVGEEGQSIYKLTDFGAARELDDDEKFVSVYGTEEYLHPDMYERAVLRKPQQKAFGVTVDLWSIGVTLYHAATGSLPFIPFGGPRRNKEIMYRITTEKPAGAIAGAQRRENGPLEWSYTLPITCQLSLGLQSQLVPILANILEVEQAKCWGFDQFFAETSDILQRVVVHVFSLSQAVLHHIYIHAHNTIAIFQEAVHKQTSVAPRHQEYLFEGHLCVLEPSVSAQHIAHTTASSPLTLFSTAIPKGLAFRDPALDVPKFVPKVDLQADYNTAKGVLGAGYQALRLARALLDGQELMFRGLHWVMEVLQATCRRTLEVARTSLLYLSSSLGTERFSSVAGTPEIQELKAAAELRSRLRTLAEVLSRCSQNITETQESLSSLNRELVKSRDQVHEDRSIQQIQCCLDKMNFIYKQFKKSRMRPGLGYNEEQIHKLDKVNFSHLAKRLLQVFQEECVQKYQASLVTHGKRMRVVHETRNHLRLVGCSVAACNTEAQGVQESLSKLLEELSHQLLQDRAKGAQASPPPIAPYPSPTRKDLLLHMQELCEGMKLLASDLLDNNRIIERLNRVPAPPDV
compound,measurement,setting,value
COc1cc(OC)c(Cl)c(-c2ccc3c(NC(=O)c4ccc(N5CCNC(C)(C)C5)cc4)n[nH]c3n2)c1Cl [3D185],inhibition at 0.01 µM,[1]; 10 nM,-6%
same,inhibition at 0.1 µM,[1]; 100 nM,11%
same,inhibition at 1 µM,[1]; 1000 nM,13%
same,inhibition at 0.01 µM,[2]; 10 nM,-14%
same,inhibition at 0.1 µM,[2]; 100 nM,5%
same,inhibition at 1 µM,[2]; 1000 nM,6%
same,inhibition at 0.01 µM,[3]; 10 nM,0%
same,inhibition at 0.1 µM,[3]; 100 nM,-1%
same,inhibition at 1 µM,[3]; 1000 nM,1%
same,inhibition at 0.01 µM,[4]; 10 nM,2%
same,inhibition at 0.1 µM,[4]; 100 nM,-8%
same,inhibition at 1 µM,[4]; 1000 nM,1%
same,inhibition at 0.01 µM,[5]; 10 nM,2%
same,inhibition at 0.1 µM,[5]; 100 nM,2%
same,inhibition at 1 µM,[5]; 1000 nM,-7%
same,inhibition at 0.01 µM,[6]; 10 nM,-4%
same,inhibition at 0.1 µM,[6]; 100 nM,6%
same,inhibition at 1 µM,[6]; 1000 nM,17%
same,inhibition at 0.01 µM,[7]; 10 nM,0%
same,inhibition at 0.1 µM,[7]; 100 nM,23%
same,inhibition at 1 µM,[7]; 1000 nM,76%
same,inhibition at 0.01 µM,[8]; 10 nM,-1%
same,inhibition at 0.1 µM,[8]; 100 nM,-9%
same,inhibition at 1 µM,[8]; 1000 nM,3%
same,inhibition at 0.01 µM,[9]; 10 nM,-1%
same,inhibition at 0.1 µM,[9]; 100 nM,-4%
same,inhibition at 1 µM,[9]; 1000 nM,-9%
same,inhibition at 0.01 µM,[10]; 10 nM,-5%
same,inhibition at 0.1 µM,[10]; 100 nM,-5%
same,inhibition at 1 µM,[10]; 1000 nM,39%
same,inhibition at 0.01 µM,[11]; 10 nM,6%
same,inhibition at 0.1 µM,[11]; 100 nM,44%
same,inhibition at 1 µM,[11]; 1000 nM,87%
same,inhibition at 0.01 µM,[12]; 10 nM,-18%
same,inhibition at 0.1 µM,[12]; 100 nM,16%
same,inhibition at 1 µM,[12]; 1000 nM,88%
same,inhibition at 0.01 µM,[13]; 10 nM,3%
same,inhibition at 0.1 µM,[13]; 100 nM,43%
same,inhibition at 1 µM,[13]; 1000 nM,81%
same,inhibition at 0.01 µM,[14]; 10 nM,-4%
same,inhibition at 0.1 µM,[14]; 100 nM,2%
same,inhibition at 1 µM,[14]; 1000 nM,5%
